Counter-ions that a name gives are not always drawn. Like-named read-outs stand apart in the source and are kept apart here.
How the values were obtained:
muscarinic receptors [1] = experiment: Radioligand binding: displacement of the muscarinic agonist 3H-Oxotremorine-M (3H-OXO-M) from rat cerebral cortex; set-up: species or system Hooded Lister rats; settings: 2 nM 3H-OXO-M, rat cerebral cortex homogenate, 2 mM magnesium chloride, 37° C., 30 min, tested as the oxalate salt
muscarinic receptors [2] = type: binding, Hooded Lister rats; settings: 0.27 nM 3H-QNB, rat cerebral cortex homogenate, 37° C., 30 min, tested as the oxalate salt

| Compound | IC50 (muscarinic receptors [1]; oxalate salt) | IC50 (muscarinic receptors [2]; oxalate salt) | IC50 (muscarinic receptors [1]) | IC50 (muscarinic receptors [2]) |
| --- | --- | --- | --- | --- |
| CCc1noc(C2CN3CCC2C3)n1 (single isomer, unassigned; (-)) [Example E3, (-) exo-(3-Ethyl-1-1,2,4-oxadiazol-5-y1)-1-azabicyclo-[2.2.1]heptane oxalate salt] | 36 nM | 725 nM |  |  |
| CCc1noc(C2CN3CCC2C3)n1 (single isomer, unassigned; (+)) [Example E2, (+) exo-3-(3-Ethyl-1,2,4-oxadiazol-5-yl)-1-azabicyclo-[2.2.1]heptane oxylate salt] |  |  | 26 nM | 1590 nM |
| CCc1noc([C@@H]2CN3CC[C@@H]2C3)n1 (relative stereo) [Example E1, (±) exo-3-(3-Ethyl-1,2,4-oxadiazol-5-yl)-1-azabicyclo-[2.2.1]heptane oxalate salt] |  |  | 31 nM | 940 nM |

Source: patent US5043342A (priority 1988, dated 1991)
